Assay results reported in US9566277B2, “Methods of using phthalazinone ketone derivatives” (Jiangsu Hansoh Pharmaceutical Co., Ltd., priority 2010, dated 2017).

Assay: Pharmacokinetics assay in SD rats (LC/MS/MS plasma concentration)
Type: in vivo
Details: 15 mg/kg; for Apparent Distribution Volume Vz/F / Clearance CL/F: intravenous injection; for Vd/F / CL/F: both sexes, rat, plasma, oral gavage; for Vd/F: read-out: Apparent Distribution Volume Vz/F; for CL/F: read-out: Clearance CL/F (converted)
Procedure: 24 Healthy adult SD rats, male and female in half, were purchased from SINO-BRITSH SIPPR/BK LAB. ANIMAL LTD., CO, Certificate No.: SCXK (Shanghai) 2003-0002.
The intragastrical administration group: the right amount of tested compounds were weighed and dissolved in 0.5 mL of DMSO, diluted with physiological saline to 10 mL and prepared to 1.5 mg/mL.
The intravenous injection administration group: the right amount of tested compounds were weighed and added into […].
After an overnight fast, 24 healthy adult SD rats, male and female in half, were administered intragastrically at a dose of 15.0 mg/kg and an administration volume of 10 mL/kg.
(§1) The intragastrical administration group: blood samples (0.2 mL) were taken from orbital sinus at pre administration and at 0.25 hour, 0.5 hour, 1.0 hour, 1.5 hours, 2.0 hours, 3.0 hours, 4.0 hours, 6.0 hours, 7.0 hours, 9.0 hours, 12.0 hours and 24.0 hours post administration, stored in heparinized tubes and centrifuged for 20 minutes at 3,500 rpm to separate plasma. The plasma samples were stored at −20° C. The rats were fed at 2 hours after administration.
as §1, with “intravenous injection” for “intragastrical”, “2 minutes, 15 minutes,” for “0.25 hour,”, “hour,” for “hour, 1.5 hours,”, “8.0” for “7.0 hours, 9.0”, “C.” for “C. The rats were fed at 2 hours after administration.”
20 μL of rat blank plasmas taken at various time points after administration were added with 50 μL of internal standard solution and […] of methanol and mixed for 3 minutes by a vortexer. The mixture was centrifuged for 10 minutes at 13,500 rpm. 20 μL of the supernatant was analyzed by LC-MS/MS. The main pharmacokinetic parameters were calculated by software DAS 2.0.

Apparent Distribution Volume Vz/F	Clearance CL/F	Vd/F	CL/F	SMILES
0.64 ± 0.19 L/kg	8.67 ± 4.83 mL/min/kg	103 ± 134 L/kg	257 mL/min/kg	CCNC(=O)c1nc(C(F)(F)F)n2c1CN(C(=O)c1cc(Cc3n[nH]c(=O)c4ccccc34)ccc1F)CC2 [Example 7, N-ethyl-7-[2-fluoro-5-[(4-oxo-3H-phthalazin-1-yl)methyl]benzoyl]-3-(trifluoromethyl)-6,8-dihydro-5H-imidazo[1,5-a]pyrazine-1-carboxamide]
4.70 ± 2.17 L/kg	12 ± 7.5 mL/min/kg	49.9 ± 52.9 L/kg	74.5 mL/min/kg	CNC(=O)c1nc(C(F)(F)F)n2c1CN(C(=O)c1cc(Cc3n[nH]c(=O)c4ccccc34)ccc1F)CC2 [Example 13, 7-[2-fluoro-5-[(4-oxo-3H-phthalazin-1-yl)methyl]benzoyl]-N-methyl-3-(trifluoromethyl)-6,8-dihydro-5H-imidazo[1,5-a]pyrazine-1-carboxamide]
–	–	7.97 ± 5.38 L/kg	57.5 mL/min/kg	O=C(c1cc(Cc2n[nH]c(=O)c3ccccc23)ccc1F)N1CCn2nc(C(F)(F)F)nc2C1 [Example 19, 4-[[4-fluoro-3-[2-(trifluoromethyl)-6,8-dihydro-5H-[1,2,4]triazolo[1,5-a]pyrazine-7-carbonyl]phenyl]methyl]-2H-phthalazin-1-one]
